Measured values reported in patent EP4818174A1, “ERIBULIN DERIVATIVE AND ANTIBODY-DRUG CONJUGATE THEREOF, AND MEDICAL USE THEREOF” ([…] CO., LTD., priority 2024, dated 2025).
Counter-ions that a name gives are not always drawn. Like-named read-outs stand apart in the source and are kept apart here.

What was measured:
Test in all cases: Inhibitory activity on other cancer cell lines (similar method)
Assay type in all cases: cell-based
MDA-MB-453 = settings: Homo sapiens
Protocol: (§1) On the day of the test, the cells were digested with 0.25% trypsin (Gibco, 25200-072), filtered with a sieve with a pore size of 40 µm, diluted with the corresponding medium until a cell density reached 1 × 10^4 cells/mL, and inoculated onto a 96-well white cell culture plate (Beyotime, FCP968), 100 µL of cells were added per well, the culture plate was put in a 37°C incubator (Thermo 311) containing 5% CO2, and the cells were further incubated for 24 hours. On Day 2, to-be-tested samples were prepared into a stock solution at a final concentration of […] with DMSO (Sigma, D1650), then diluted with the corresponding medium until a final concentration reached 200 nM, and then subjected to four-fold serial dilutions, to prepare solutions at a total of 9 concentrations. 100 µL of the diluted sample was added to a 96-well plate, the plate was put in a 37°C incubator containing 5% CO2, and the cells were further incubated for 144 hours. The cell culture plate was removed, 100 µL of cell viability assay agent (CellTiter-Glo® Luminescent Cell Viability Assay, Promega, G7571) was added to each well, and the reaction solution allowed to react in the dark for 5 minutes at room temperature. Luminescence values were read by a microplate reader (TECAN SPARK) and data were processed with Graphpad Prism 7 software.
(§2) Table 2: Inhibitory IC50 Values of Compounds PE-21EK and PE-AM4 in the Present Invention Against Other Cancer Cell Lines

H1975 = settings: Homo sapiens
Protocol: as §1, §2

MIA PaCa-2 = settings: Homo sapiens
Protocol: as §1, §2

Lncap cell = settings: Homo sapiens, read-out: Inhibitory IC50 values
Protocol: as §1, §2

NSCLC = settings: read-out: Inhibitory IC50 values
Protocol: as §1, §2

NCI-H1650 = settings: Homo sapiens
Protocol: as §1, §2

MDAMB231 = settings: Homo sapiens
Protocol: as §1, §2

IGROV-1 = settings: Homo sapiens
Protocol: as §1, §2

DU145 = settings: Homo sapiens
Protocol: as §1, §2

SW620 = settings: Homo sapiens
Protocol: as §1, §2

Renal cancer = settings: read-out: Inhibitory IC50 values
Protocol: as §1, §2

HS578T = settings: Homo sapiens, Hs-578T, read-out: Inhibitory IC50 values
Protocol: as §1, §2

22Rv1 = settings: Homo sapiens
Protocol: as §1, §2

A549 = settings: Homo sapiens
Protocol: as §1, §2

HCC1937 = settings: Homo sapiens
Protocol: as §1, §2

[1] = MDA-MB-453, cell source Breast cancer, unit inferred, read-out: Inhibitory IC50 values
[2] = NCI-H1975, H1975, cell source NSCLC, unit inferred, read-out: Inhibitory IC50 values
[3] = MIA PaCa-2, cell source Pancreatic cancer, unit inferred, read-out: Inhibitory IC50 values
[4] = Lncap cell, cell source Prostate cancer, unit inferred
[5] = NCI-H1650, cell source NSCLC, unit inferred, read-out: Inhibitory IC50 values
[6] = MDA-MB-231, MDAMB231, cell source Breast cancer, unit inferred, read-out: Inhibitory IC50 values
[7] = IGROV-1, cell source Ovarian cancer, unit inferred, read-out: Inhibitory IC50 values
[8] = DU-145, DU145, cell source Prostate cancer, unit inferred, read-out: Inhibitory IC50 values
[9] = SW-620, SW620, cell source Colon cancer, unit inferred, read-out: Inhibitory IC50 values
[10] = HS578T, cell source Breast cancer, unit inferred
[11] = 22Rv1, cell source Prostate cancer, unit inferred, read-out: Inhibitory IC50 values
[12] = A549, cell source NSCLC, unit inferred, read-out: Inhibitory IC50 values
[13] = HCC1937, cell source Breast cancer, unit inferred, read-out: Inhibitory IC50 values

C=C1C[C@@H]2CC[C@@]34C[C@H]5O[C@H]6[C@@H](O3)[C@H]3O[C@H](CC[C@@H]3O[C@H]6[C@H]5O4)CC(=O)C[C@@H]3[C@@H](OC)[C@@H](CC(=O)CNC(=O)OCCCCCO)O[C@H]3C[C@H]3O[C@@H](CC[C@@H]1O2)C[C@@H](C)C3=C [PE-21EK]
IC50 (MDA-MB-453; [1]): 84.6 pM | IC50 (H1975; [2]): 70.8 pM | IC50 (MIA PaCa-2; [3]): 158 pM | IC50 (Lncap cell; [4]): 123 pM | IC50 (NSCLC): 184 pM | IC50 (NCI-H1650; [5]): 262 pM | IC50 (MDAMB231; [6]): 218 pM | IC50 (IGROV-1; [7]): 289 pM | IC50 (DU145; [8]): 501 pM | IC50 (SW620; [9]): 22.1 pM | IC50 (Renal cancer): 102 pM | IC50 (HS578T; [10]): 20.7 pM | IC50 (22Rv1; [11]): 125 pM | IC50 (A549; [12]): 194 pM | IC50 (HCC1937; [13]): 104 pM

C=C1C[C@@H]2CC[C@@]34C[C@H]5O[C@H]6[C@@H](O3)[C@H]3O[C@H](CC[C@@H]3O[C@H]6[C@H]5O4)CC(=O)C[C@@H]3[C@@H](OC)[C@@H](CC(=O)N4CC(CO)C4)O[C@H]3C[C@H]3O[C@@H](CC[C@@H]1O2)C[C@@H](C)C3=C [PE-AM4]
IC50 (MDA-MB-453; [1]): 151 pM | IC50 (H1975; [2]): 728 pM | IC50 (MIA PaCa-2; [3]): 1220 pM | IC50 (Lncap cell; [4]): 457 pM | IC50 (NSCLC): 3130 pM | IC50 (NCI-H1650; [5]): 1560 pM | IC50 (MDAMB231; [6]): 1080 pM | IC50 (IGROV-1; [7]): 623 pM | IC50 (DU145; [8]): 686 pM | IC50 (SW620; [9]): 1300 pM | IC50 (Renal cancer): 3470 pM | IC50 (HS578T; [10]): 276 pM | IC50 (22Rv1; [11]): 741 pM | IC50 (A549; [12]): 4920 pM | IC50 (HCC1937; [13]): 647 pM

C=C1C[C@@H]2CC[C@@]34C[C@H]5O[C@H]6[C@@H](O3)[C@H]3O[C@H](CC[C@@H]3O[C@H]6[C@H]5O4)CC(=O)C[C@@H]3[C@@H](OC)[C@@H](C[C@H](O)CN)O[C@H]3C[C@H]3O[C@@H](CC[C@@H]1O2)C[C@@H](C)C3=C [PE-E, eribulin mesylate, reference compound]
IC50 (MDA-MB-453; MDA-MB-453, read-out: Inhibitory IC50 values): 19300 pM | IC50 (H1975; NCI-H1975, read-out: Inhibitory IC50 values): 505 pM | IC50 (MIA PaCa-2; MIA PaCa-2, read-out: Inhibitory IC50 values): 668 pM | IC50 (Lncap cell; LNCaP): 1300 pM | IC50 (NSCLC): 649 pM | IC50 (NCI-H1650; NCI-H1650, read-out: Inhibitory IC50 values): 2350 pM | IC50 (MDAMB231; MDA-MB-231, read-out: Inhibitory IC50 values): 805 pM | IC50 (IGROV-1; IGROV-1, read-out: Inhibitory IC50 values): 439 pM | IC50 (DU145; DU-145, read-out: Inhibitory IC50 values): 1680 pM | IC50 (SW620; SW-620, read-out: Inhibitory IC50 values): 419 pM | IC50 (Renal cancer): 755 pM | IC50 (HS578T): 188 pM | IC50 (22Rv1; 22Rv1, read-out: Inhibitory IC50 values): 618 pM | IC50 (A549; A549, read-out: Inhibitory IC50 values): 4170 pM | IC50 (HCC1937; HCC1937, read-out: Inhibitory IC50 values): 2850 pM
